Consider eleven compounds from ChEMBL document CHEMBL1201862, “PubChem BioAssay data set” (2004).

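Compound exposure: 48 hours, 5 concentrations, 96-well plates. GI50: concentration for 50% inhibition of growth.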 Activity calls are given as the source filed them. Rule as the data show it: active = GI50 up to about 1.1 µM and inactive = higher.

Among the test systems are MDA-MB-231; MDA-MB-435; OVCAR-3; ACHN; K562; KM12; BT-549; OVCAR-4; HCT-15; Hs-578T; NCI-H23; DU-145; HT-29; HL-60; SK-OV-3; MCF7; A498; OVCAR-8; SF-268; IGROV-1.
Common to all, as to assay: NCI tumour cell line growth inhibition, 48 h

On to `COc1ccc(/C=C/C(=O)N[C@@H]2C(=O)N3[C@@H]2SC(C)(C)[C@@H]3C(=O)O)cc1`, for which the GI50 with MDA-MB-231, with MDA-MB-435, in the test on OVCAR-3, in the test on ACHN, in the test with K562 and in the test on KM12 was > 100 µM (inactive) each time. Further, the GI50 is > 100 µM (inactive) in the test with BT-549; > 100 µM (inactive) in the test on OVCAR-4; greater than 100 µM with HCT-15; > 100 µM (inactive) in the test with Hs-578T; > 100 µM (inactive) in the test on NCI-H23; > 100 µM (inactive) in the test on DU-145. Besides, the GI50 in the test on HT-29, in the test on HL-60, in the test with SK-OV-3, in the test on MCF7, in the test with A498 and with OVCAR-8 was > 100 µM (inactive) in each case. In the test on SF-268, the GI50 was > 100 µM (inactive).
Consider `O=C1c2c(O)cccc2C(C(=O)CCCCC(=O)C2c3cccc(O)c3C(=O)c3c(O)cccc32)c2cccc(O)c21`, for which the GI50 is 0.426 µM (active) in the test with MDA-MB-231; 0.809 µM (active) in the test with MDA-MB-435; 0.547 µM (active) with OVCAR-3; 0.729 µM (active) in the test on ACHN; 0.661 µM (active) with K562; 0.607 µM (active) in the test on KM12. For the same compound, the GI50 in the test with BT-549 was 0.603 µM (active); with OVCAR-4, 0.782 µM (active); with HCT-15 it was 0.662 µM; in the test with Hs-578T, 0.176 µM (active); in the test on NCI-H23 it was 0.618 µM (active); with DU-145, 0.671 µM (active). The GI50 is 0.641 µM (active) in the test with HT-29; 0.485 µM (active) in the test on HL-60; 0.562 µM (active) in the test with SK-OV-3; 0.845 µM (active) in the test with MCF7; 1.56 µM (inactive) with A498; 0.733 µM (active) with OVCAR-8. The GI50 in the test on SF-268 is 0.69 µM (active).
Consider `Cc1cc(S(=O)(=O)N2CCNNC2=O)c(S)cc1Cl`, for which the GI50 is 23.8 µM (inactive) in the test on MDA-MB-231; > 100 µM (inactive) with MDA-MB-435; > 100 µM (inactive) with OVCAR-3; > 100 µM (inactive) with ACHN; 37.2 µM (inactive) in the test with K562; > 100 µM (inactive) with KM12. Further, the GI50 with BT-549 is 20.8 µM (inactive); with OVCAR-4, > 100 µM (inactive); in the test on HCT-15 it was 56.5 µM; in the test on Hs-578T, > 100 µM (inactive); with DU-145, > 100 µM (inactive); with IGROV-1, 87.9 µM (inactive). The GI50 in the test on HL-60 is 39.7 µM (inactive); in the test with MCF7 it was 77.3 µM (inactive); in the test with A498, > 100 µM (inactive); in the test on OVCAR-8 it was > 100 µM (inactive); in the test with SF-268, > 100 µM (inactive).
Regarding `COc1ccc(C2c3cc4c(c(OC)c3CC3OCC(=O)C32)OCO4)cc1OC` (stereo not given), the GI50 was 0.209 µM (active) with MDA-MB-231; 0.0146 µM (active) in the test with MDA-MB-435; < 0.01 µM (active) in the test with ACHN; 0.0504 µM (active) with K562; 0.0318 µM (active) in the test on KM12; 0.0914 µM (active) in the test with BT-549. For the same compound, the GI50 is 0.0364 µM (active) with OVCAR-4; 0.0417 µM in the test with HCT-15; < 0.01 µM (active) with Hs-578T; 0.0365 µM (active) in the test on NCI-H23; 0.0218 µM (active) with DU-145; < 0.01 µM (active) in the test on HT-29. For the same compound, the GI50 in the test with IGROV-1 is < 0.01 µM (active); in the test with HL-60, < 0.01 µM (active); with SK-OV-3, 0.0405 µM (active); with MCF7 it was 0.0575 µM (active); in the test with A498, 0.0783 µM (active); with OVCAR-8 it was 0.0601 µM (active). In addition, the GI50 in the test with SF-268 was 0.416 µM (active).
Take `OCC1OC(n2cnc3c(Cl)nc(Nc4ccccc4)nc32)CC1O` (stereo not given): the GI50 with MDA-MB-231 was 31.2 µM (inactive); in the test with MDA-MB-435, 60.1 µM (inactive); in the test on OVCAR-3, 75.5 µM (inactive); with ACHN it was 17.3 µM (inactive); with K562 it was 32.7 µM (inactive); with KM12, > 100 µM (inactive). For the same compound, the GI50 in the test with BT-549 was 35.6 µM (inactive); in the test on OVCAR-4, 25.4 µM (inactive); in the test with HCT-15, 20.8 µM; in the test with Hs-578T, 35.2 µM (inactive); in the test with NCI-H23, 29.3 µM (inactive); in the test with DU-145, > 100 µM (inactive). Further, the GI50 in the test with HT-29 was > 100 µM (inactive); in the test with IGROV-1 it was 25.4 µM (inactive); in the test on SK-OV-3, > 100 µM (inactive); in the test on MCF7 it was > 100 µM (inactive); in the test with A498, 70 µM (inactive); in the test with OVCAR-8, > 100 µM (inactive). In the test with SF-268, the GI50 is 65.6 µM (inactive).
In the case of `Cc1n[nH]c(=O)c2c3c([nH]c12)-c1ccccc1C3`, the GI50 in the test on MDA-MB-231 was 66.4 µM (inactive); in the test on MDA-MB-435, > 100 µM (inactive); with OVCAR-3, > 100 µM (inactive); with ACHN, > 100 µM (inactive); in the test on K562 it was > 100 µM (inactive); in the test with KM12 it was > 100 µM (inactive). For the same compound, the GI50 was > 100 µM (inactive) with BT-549; > 100 µM (inactive) in the test on OVCAR-4; greater than 100 µM with HCT-15; > 100 µM (inactive) in the test with Hs-578T; > 100 µM (inactive) in the test with NCI-H23; > 100 µM (inactive) with DU-145. For the same compound, the GI50 is > 100 µM (inactive) in the test with HT-29; 0.0716 µM (active) in the test with IGROV-1; > 100 µM (inactive) with SK-OV-3; 75.3 µM (inactive) in the test on MCF7; > 100 µM (inactive) in the test on A498; > 100 µM (inactive) in the test with OVCAR-8. Further, the GI50 in the test on SF-268 was > 100 µM (inactive).
Regarding `Cc1nc(N)c(N2CCN(C(=O)O)CC2)c(O)n1`, the GI50 in the test on MDA-MB-231, with MDA-MB-435, in the test on OVCAR-3, in the test with ACHN, with K562 and in the test with KM12 was > 100 µM (inactive) each time. Also, the GI50 was > 100 µM (inactive) in the test with BT-549; > 100 µM (inactive) in the test on OVCAR-4; greater than 100 µM with HCT-15; > 100 µM (inactive) in the test with Hs-578T; > 100 µM (inactive) in the test with NCI-H23; > 100 µM (inactive) with DU-145. Also, the GI50 in the test on HT-29, with HL-60, with MCF7, in the test with A498, in the test on OVCAR-8 and in the test on SF-268 was > 100 µM (inactive) in each case.
`CCCCCCCCCC(=O)OCC1(CO)C/C(=C/CC(C(C)C)C(C)C)C(=O)O1` (stereo not given): the GI50 in the test with MDA-MB-231 was 51.3 µM (inactive); in the test with MDA-MB-435 it was 31.6 µM (inactive); with OVCAR-3, > 100 µM (inactive); with ACHN it was 71.1 µM (inactive); with K562, 18.3 µM (inactive); in the test with KM12, 10.2 µM (inactive). The GI50 with BT-549 was > 100 µM (inactive); with OVCAR-4 it was 61.2 µM (inactive); with HCT-15 it was 84.5 µM; in the test on Hs-578T, 27 µM (inactive); in the test on NCI-H23, > 100 µM (inactive); in the test on DU-145, 71 µM (inactive). In addition, the GI50 with HT-29 was 31.6 µM (inactive); in the test with IGROV-1, 37.7 µM (inactive); with SK-OV-3 it was > 100 µM (inactive); in the test on MCF7 it was 59 µM (inactive); in the test on A498, 53.3 µM (inactive); in the test on OVCAR-8 it was 47.1 µM (inactive). Also, the GI50 in the test on SF-268 was > 100 µM (inactive).
As to `Cn1c(=O)sc2cc(C(=S)N3CCC(Cc4ccccc4)CC3)ccc21`, the GI50 is > 100 µM (inactive) with MDA-MB-231; 27.5 µM (inactive) in the test on MDA-MB-435; 53.8 µM (inactive) with OVCAR-3; > 100 µM (inactive) in the test on ACHN; 34.9 µM (inactive) in the test on K562; 34.7 µM (inactive) in the test on KM12. Also, the GI50 was 30.3 µM (inactive) with BT-549; 99.5 µM in the test with HCT-15; 21.4 µM (inactive) with Hs-578T; 44.7 µM (inactive) in the test with NCI-H23; 84.5 µM (inactive) with DU-145; 62.1 µM (inactive) in the test on HT-29. In addition, the GI50 in the test with IGROV-1 was 33.8 µM (inactive); in the test on HL-60 it was 22.5 µM (inactive); in the test with SK-OV-3, 58.5 µM (inactive); in the test with MCF7, 41.7 µM (inactive); with A498, > 100 µM (inactive); in the test on OVCAR-8, 20.1 µM (inactive). Besides, the GI50 with SF-268 was 28.7 µM (inactive).
Turning to `O=C(Nc1ccc(Cl)cc1)c1cc2c(cc1Cl)SC(NNCCO)=NS2(=O)=O`, the GI50 in the test on MDA-MB-231 is > 100 µM (inactive); in the test on MDA-MB-435 it was > 100 µM (inactive); in the test with ACHN it was > 100 µM (inactive); with K562, 27.9 µM (inactive); with KM12 it was > 100 µM (inactive); in the test with BT-549, > 100 µM (inactive). The GI50 was > 100 µM (inactive) in the test with OVCAR-4; greater than 100 µM with HCT-15; > 100 µM (inactive) in the test on Hs-578T; > 100 µM (inactive) with NCI-H23; > 100 µM (inactive) in the test on DU-145; > 100 µM (inactive) in the test with HT-29. The GI50 in the test on IGROV-1 was > 100 µM (inactive); in the test on HL-60, > 100 µM (inactive); in the test on SK-OV-3 it was > 100 µM (inactive); in the test on MCF7, 98.9 µM (inactive); with A498, 17.6 µM (inactive); in the test on OVCAR-8, > 100 µM (inactive). The GI50 with SF-268 was > 100 µM (inactive).
For `Cc1cn(C2CC(Br)C(COC(c3ccccc3)(c3ccccc3)c3ccccc3)O2)c(=O)[nH]c1=O` (stereo not given), the GI50 with MDA-MB-231 is 17.7 µM (inactive); in the test with MDA-MB-435, 14.7 µM (inactive); in the test on OVCAR-3 it was 12.6 µM (inactive); in the test with ACHN, 13.8 µM (inactive); with K562, 7.98 µM (inactive); with KM12, 6.71 µM (inactive). Also, the GI50 in the test with BT-549 is 12 µM (inactive); with OVCAR-4, 13 µM (inactive); with Hs-578T it was 14.6 µM (inactive); with NCI-H23, 7.4 µM (inactive); in the test on DU-145, 14.5 µM (inactive); in the test with HT-29, 10.9 µM (inactive). In addition, the GI50 is 14.2 µM (inactive) with IGROV-1; 4.76 µM (inactive) in the test on HL-60; 10 µM (inactive) with MCF7; 15.3 µM (inactive) in the test with A498; 10.9 µM (inactive) in the test with OVCAR-8; 13.8 µM (inactive) with SF-268.
